Experimental data as given in patent US20100136603A1, “KIT AND A METHOD FOR EVALUATING TOXICITY USING SPORE RELEASE BY THE GREEN ALGA ULVA” (priority 2008, published 2010).

System: Ulva pertusa Kjellman
Conditions: for order of toxicity of the heavy metal, estimated by EC50: rank order among heavy metals, spore release, 96 hours
Method: The present inventors collected Ulva pertusa Kjellman from the coast of Ahnin in Korea, and the leaf (thallus) of Ulva pertusa Kjellman was cut to have a coin shape having a diameter of 6 mm, and dispensed in the plastic cell plate containing 10 ml artificial sea water (35%) medium (Coralife, Energy Savers, California. USA) supplemented with 1 mM KNO3 and 0.1 mM K2HPO4.
The toxicity test was then carried out by adding toxic materials (toxicants) into the medium, keeping the other environmental conditions constant. The used toxic materials and the target concentration are described in the following Table 1.
After cultivated for 96 hours, the thallus having the coin shape was collected, and the area with white color was measured by using the microscope (Axioscope) having a magnification of 400× and the image analysis system (MV200, Samsung, Korea).
The mother liquid of TBTO was prepared in acetone that was mixed with the sea water (0.01%); here an acetone control group in the same concentration was also tested. The toxicities of volatile organic compounds (VOC) [acetone, ethanol, formalin and methanol) were tested by adding aqueous volatile organic compounds (VOC) to the medium to achieve the target concentration.

**Q.** For `[Zn]` [Zn, zinc], which “order of toxicity of the heavy metal, estimated by EC50” value (“order of toxicity of the heavy metal” for short) is on record?
**A.** Cu>Cd>Zn>Pb

**Q.** For `[Cd]` [Cd, cadmium], which “order of toxicity of the heavy metal” value is on record?
**A.** Cu>Cd>Zn>Pb

**Q.** `CCO` [ethanol] was tested. Which “order of toxicity of the volatile organic compound (VOC)” value (shortened to “order of toxicity … (VOC)”) (in vivo) did it give?
**A.** formaline>methanol>ethanol>acetone

**Q.** `CC(C)=O` [acetone] was tested. Which “order of toxicity … (VOC)” value (in vivo) did it give?
**A.** formaline>methanol>ethanol>acetone

**Q.** How did the “order of toxicity … (VOC)” value (in vivo) turn out when `CO` [methanol] was run?
**A.** formaline>methanol>ethanol>acetone

**Q.** Which “half effective concentration (EC50)” value (in vivo) does the source give for `C=O` [formaline] here?
**A.** 0.788 μl/L

**Q.** What about the “order of toxicity … (VOC)” value (in vivo) of the same molecule?
**A.** formaline>methanol>ethanol>acetone

**Q.** `[Cu]` [Cu, copper] was tested. Which “order of toxicity of the heavy metal” value did it give?
**A.** Cu>Cd>Zn>Pb
